Data taken from patent US20140220134A1, “METHOD FOR TREATING DIABETES WITH EXTENDED RELEASE FORMULATION OF GLP-1 RECEPTOR AGONISTS” (Astrazeneca Pharamceuticals LP, priority 2011, published 2014).
Structures can show the parent of a compound that is named as a salt.

Legend:
[1] = Fraction of drug in microparticles and in MCT oil carrier after storage; type: physicochemical
From the text: Mixtures ranged from 2% to 10% w/w of the active pharmaceutical ingredient. The mixed powder was transferred to an extruder where the temperature was adjusted according to the chosen polymer. Some polymers needed higher temperatures to produce a melt with good flow properties. The extruder contained twin screws that moved clockwise to produce efficient mixing. The material was extruded through a 1.5 mm orifice, collected, cooled at room temperature, and cut into short strands about 1-2 inches long. These strands were then fed into a 12-tooth rotor mill, followed by a sieving step to produce microparticles of about 20 to 100 microns. The microparticles were collected and stored at 5° C. until further use.
Experimental samples were prepared by dispersing about 50 mg of the microparticles into 0.75 mL of a MCT oil carrier. The samples were stored at 5° C. and 25° C. for two days, two weeks, or one month, at which times representative samples were tested. The fraction of drug that remained in the microparticles and the fraction of drug that partitioned into the MCT oil carrier were determined. Briefly, the samples were centrifuged to separate the microparticles from the MCT oil carrier. Each portion was treated independently to determine the amount of drug it contained. Results are reported on the basis of the percent residing in each independent portion.

Solubility in MCT oil = type: physicochemical; conditions: oil or lipid
[2] = PLGA copolymer, 1 Month Storage at 5° C.
[3] = PLGA copolymer, 1 Month Storage at 25° C.
[4] = PLGA copolymer, 2 Days Storage at 5° C.
[5] = PLGA copolymer, 2 Days Storage at 25° C.
[6] = polycaprolactone/PLGA copolymer, Two Weeks Storage, 5° C.
[7] = polycaprolactone/PLGA copolymer, Two Weeks Storage, 25° C.

| Compound | drug in MCT Carrier [1, 2] [%] | drug in Microparticles [1, 2] [%] | drug in MCT Carrier [1, 3] [%] | drug in Microparticles [1, 3] [%] | drug in MCT Carrier [1, 4] [%] | drug in Microparticles [1, 4] [%] | drug in MCT Carrier [1, 5] [%] | drug in Microparticles [1, 5] [%] | drug in MCT Carrier [1, 6] [%] | drug in Microparticles [1, 6] [%] | drug in MCT Carrier [1, 7] [%] | drug in Microparticles [1, 7] [%] | solubility (Solubility in MCT oil) [mg/mL] |
| --- | --- | --- | --- | --- | --- | --- | --- | --- | --- | --- | --- | --- | --- |
| CN(C)c1ccc(O)c2c1C[C@H]1C[C@H]3[C@H](N(C)C)C(O)=C(C(N)=O)C(=O)[C@@]3(O)C(O)=C1C2=O [minocycline, minocycline HCl] | 0.1 | 99.9 | 0.4 | 99.6 | 0.9 | 99.1 | 0.6 | 99.4 |  |  |  |  |  |
| CC[C@H](C)[C@H](NC(=O)[C@@H]1CCCN1C(=O)CNC(=O)[C@H](Cc1ccccc1)NC(=O)[C@H](CC(N)=O)NC(=O)[C@H](CC(N)=O)NC(=O)[C@H](CO)NC(=O)[C@H](CO)NC(=O)[C@H](Cc1c[nH]cn1)NC(=O)[C@@H](NC(=O)[C@H](CC(C)C)NC(=O)[C@H](Cc1ccccc1)NC(=O)[C@H](CC(N)=O)NC(=O)[C@H](C)NC(=O)[C@H](CC(C)C)NC(=O)[C@H](CCCNC(=N)N)NC(=O)[C@H](CCC(N)=O)NC(=O)[C@@H](NC(=O)[C@H](C)NC(=O)[C@@H]1CSSC[C@H](NC(=O)[C@@H](N)CCCCN)C(=O)N[C@@H](CC(N)=O)C(=O)N[C@@H]([C@@H](C)O)C(=O)N[C@@H](C)C(=O)N[C@@H]([C@@H](C)O)C(=O)N1)[C@@H](C)O)C(C)C)C(=O)N[C@@H](CC(C)C)C(=O)N1CCC[C@H]1C(=O)N1CCC[C@H]1C(=O)N[C@H](C(=O)N[C@@H](CC(N)=O)C(=O)N[C@H](C(=O)NCC(=O)N[C@@H](CO)C(=O)N[C@@H](CC(N)=O)C(=O)N[C@H](C(=O)N[C@@H](Cc1ccc(O)cc1)C(N)=O)[C@@H](C)O)C(C)C)[C@@H](C)O [pramlintide] | 0.3 | 99.7 | 0.0 | 100.0 | 0.0 | 100.0 | 0.0 | 100.0 | 0.0 | 100.0 | 0.0 | 100.0 |  |
| O=C(O)c1ccccc1O [salicylic acid] | 0.1 | 99.9 | 0.2 | 99.8 | 1.1 | 98.9 | 0.9 | 99.1 |  |  |  |  | > 30 |
| O=C([O-])c1ccccc1O.[Na+] [sodium salicylate] | 1.3 | 98.7 | 1.5 | 98.5 | 0.5 | 99.5 | 2.3 | 97.7 |  |  |  |  |  |
| bovine serum albumin | 0.0 | 100.0 | 0.0 | 100.0 | 0.0 | 100.0 | 0.0 | 100.0 |  |  |  |  |  |
| davalintide | 0.6 | 99.4 | 0.0 | 100.0 | 0.2 | 99.8 | 0.0 | 100.0 |  |  |  |  |  |
| insulin | 0.5 | 99.5 | 0.7 |  |  |  |  |  |  |  |  |  |  |
| metreleptin | 0.0 | 100.0 | 0.0 | 100.0 | 0.0 | 100.0 | 0.0 | 100.0 |  |  |  |  |  |
